Key:
[1] = molecular target: HBV C150Bo capsid protein (HBV CA protein) (Hepatitis B virus genotype D subtype adw, UniProt P03147, C107A/C48A/C61A/R150C); experiment: HBV assembly assay (fluorescence quenching in vitro assembly); format: biochemical; conditions: for Activity in HBV assembly assay: at 10 μM
[2] = system: HBV replication in HepG2-2.2.15 cells; experiment: Dot-blot assay of HBV replication; format: cell-based; conditions: Hepatitis B virus, 144 h
Procedure: Compounds active in the HBV assembly assay are tested for their activity and toxicity in cellular assay. In the first anti-viral assay, the ability of compounds to inhibit HBV replication in an HBV-producing hepatoma cell line using the dot-blot method is evaluated.
Briefly, confluent monolayers of HepG2-2.2.15 cells are incubated with complete medium containing various concentrations of a test compound. Three days later, the culture medium is replaced with fresh medium containing the appropriately diluted test compound. Six days following the initial administration of the test compound, the cell culture supernatant is collected, and cell lysis is performed. The samples are applied onto Nylos membranes and DNA is immobilized to the membrane by UV cross-linking. After pre-hybridization, the HBV probe is added and the hybridization is performed overnight. The membranes are exposed to the Kodak films; antiviral activity is calculated from the reduction in HBV DNA levels (EC50). The EC50 for antiviral activity is calculated from the dose response curves of active compounds.
In the first anti-viral assay, the ability of compounds to inhibit HBV replication in an HBV-producing hepatoma cell line using the dot-blot method was evaluated.
Confluent monolayers of HepG2-2.2.15 cells were incubated with complete medium containing various concentrations of a test compound. Three days later, the culture medium was replaced with fresh medium containing the appropriately diluted test compound. Six days following the initial administration of the test compound, the cell culture supernatant was collected, and cell lysis was performed. The samples were applied onto Nylos membranes and DNA was immobilized to the membrane by UV cross-linking. After pre-hybridization, the HBV probe was added and the hybridization was performed overnight. The membranes were exposed to the Kodak films; antiviral activity was calculated from the reduction in HBV DNA levels (EC50). The EC50 for antiviral activity was calculated from the dose response curves of active compounds. […]

Sequence of HBV C150Bo capsid protein (HBV CA protein) (P03147 1-150 C48A/C61A/C107A/R150C): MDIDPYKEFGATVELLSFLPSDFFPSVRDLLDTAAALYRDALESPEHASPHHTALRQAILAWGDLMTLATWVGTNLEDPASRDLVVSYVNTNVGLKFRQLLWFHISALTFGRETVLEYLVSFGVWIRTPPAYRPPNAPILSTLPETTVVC

SMILES	Activity in HBV assembly assay [1]	inhibition at 10 µM [2]	EC50 in HBV assembly assay ([1]; control compounds)
O=C(Nc1cc(F)c(F)c(F)c1)c1ccc(F)c(S(=O)(=O)N2CCC(O)C(F)C2)c1 (single isomer, unassigned) [960D1]	+ (‘+’ indicates >50% activity at 10 μM)	> 50%	–
O=C(Nc1cc(F)c(F)c(F)c1)c1ccc(F)c(S(=O)(=O)N2CCC(O)C(F)C2)c1 (single isomer, unassigned) [960D2]	+ (‘+’ indicates >50% activity at 10 μM)	–	–
CC1CN(S(=O)(=O)c2cccc(C(=O)Nc3cc(F)c(F)c(F)c3)c2)CCC1O (centres unmarked) [610D2]	+ (‘+’ indicates >50% activity at 10 μM)	> 50%	–
O=C(Nc1ccc(F)c(C(F)F)c1)c1cccc(S(=O)(=O)N2CCCC2CO)c1 (centres unmarked) [677R]	+ (‘+’ indicates >50% activity at 10 μM)	> 50%	–
O=C(Nc1ccc(F)c(Cl)c1)c1cccc(S(=O)(=O)N2CCC(O)C(Cc3ccccc3)C2)c1 (centres unmarked) [713D2]	+ (‘+’ indicates >50% activity at 10 μM)	> 50%	–
O=C(Nc1ccc(F)c(Cl)c1)c1cccc(S(=O)(=O)N2CCC(O)C(CO)C2)c1 (centres unmarked) [719D1]	+ (‘+’ indicates >50% activity at 10 μM)	> 50%	–
O=C(Nc1ccc(F)c(Cl)c1)c1cccc(S(=O)(=O)N2CCC(CO)C(O)C2)c1 (centres unmarked) [725D1]	+ (‘+’ indicates >50% activity at 10 μM)	> 50%	–
CC1CN(S(=O)(=O)c2cccc(C(=O)Nc3cc(F)c(F)c(F)c3)c2)CCC1CCO (centres unmarked) [743D1]	+ (‘+’ indicates >50% activity at 10 μM)	> 50%	–
O=C(Nc1ccc(F)c(C(F)F)c1)c1cccc(S(=O)(=O)N2CCC(O)C(F)C2)c1 (centres unmarked) [820D2]	+ (‘+’ indicates >50% activity at 10 μM)	> 50%	–
O=C(Nc1cc(F)c(F)c(C(F)F)c1)c1cccc(S(=O)(=O)N2CCC(O)C(F)C2)c1 (centres unmarked) [824D2]	+ (‘+’ indicates >50% activity at 10 μM)	> 50%	–
O=C(Nc1ccc(F)c(Br)c1)c1cccc(S(=O)(=O)NC2CCCC(O)C2)c1 (centres unmarked) [867D2]	+ (‘+’ indicates >50% activity at 10 μM)	> 50%	–
O=C(Nc1cc(F)c(F)c(F)c1)c1ccc(F)c(S(=O)(=O)C2CCC(CO)C(O)C2)c1 (centres unmarked) [946D2]	+ (‘+’ indicates >50% activity at 10 μM)	> 50%	–
O=C(Nc1ccc(F)c(Cl)c1)c1ccc(F)c(S(=O)(=O)N2CCC(CO)C(O)C2)c1 (centres unmarked) [955D1]	+ (‘+’ indicates >50% activity at 10 μM)	> 50%	–
O=C(Nc1ccc(F)c(Cl)c1)c1ccc(F)c(S(=O)(=O)N2CCC(CO)C(O)C2)c1 (centres unmarked) [955D2]	+ (‘+’ indicates >50% activity at 10 μM)	–	–
O=C(Nc1ccc(F)c(Cl)c1)c1ccc(Cl)c(S(=O)(=O)N2CCCC2CO)c1 (centres unmarked) [1094S]	+ (‘+’ indicates >50% activity at 10 μM)	> 50%	–
O=C(Nc1ccc(F)c(Cl)c1)c1cc(S(=O)(=O)NC2CC(O)C2)ccc1Cl (centres unmarked) [1134CT2]	+ (‘+’ indicates >50% activity at 10 μM)	> 50%	–
O=C(Nc1cc(F)c(F)c(Cl)c1)c1ccc(F)c(S(=O)(=O)N2CCC(O)C(F)C2)c1 (centres unmarked) [1135D1]	+ (‘+’ indicates >50% activity at 10 μM)	> 50%	–
O=C(Nc1cc(F)c(F)c(F)c1)c1cc(S(=O)(=O)NC2CC(O)C2)c(F)cc1Cl (centres unmarked) [1374CT1]	+ (‘+’ indicates >50% activity at 10 μM)	> 50%	–
O=C(Nc1cc(F)c(F)c(F)c1)c1cc(S(=O)(=O)NC2CC(O)C2)c(F)cc1Cl (centres unmarked) [1374CT2]	+ (‘+’ indicates >50% activity at 10 μM)	–	–
O=C(Nc1ccc(F)c(F)c1)c1cc(S(=O)(=O)NC2CC(O)C2)c(F)cc1Cl (centres unmarked) [1378CT2]	+ (‘+’ indicates >50% activity at 10 μM)	> 50%	–
COC(=O)C1=C(C)NC(c2ccccn2)=NC1c1ccc(F)cc1Cl (centres unmarked) [HAP-1, reference compound]	–	–	consistent with the literature
O=C(Nc1cccc(Br)c1)c1cccc(S(=O)(=O)N2CCC(CO)CC2)c1 [compound 065]	+ (‘+’ indicates >50% activity at 10 μM)	> 50%	–
O=C(Nc1cccc(Br)c1)c1cccc(S(=O)(=O)N2CC(O)C2)c1 [compound 078]	+ (‘+’ indicates >50% activity at 10 μM)	> 50%	–

SMILES	Activity in HBV assembly assay [1]	inhibition at 10 µM [2]	EC50 in HBV assembly assay ([1]; control compounds)
CN(CCO)S(=O)(=O)c1cccc(C(=O)Nc2cccc(Br)c2)c1 [compound 079]	+ (‘+’ indicates >50% activity at 10 μM)	> 50%	–
CC(=O)N1CCN(S(=O)(=O)c2cccc(C(=O)Nc3cccc(Br)c3)c2)CC1 [compound 119]	+ (‘+’ indicates >50% activity at 10 μM)	> 50%	–
CCCC(=O)N1CCN(S(=O)(=O)c2cccc(C(=O)Nc3cccc(Br)c3)c2)CC1 [compound 121]	+ (‘+’ indicates >50% activity at 10 μM)	> 50%	–
O=C(Nc1cccc(Br)c1)c1cccc(S(=O)(=O)N2CCN(c3ccncc3)CC2)c1 [compound 126]	+ (‘+’ indicates >50% activity at 10 μM)	> 50%	–
O=C(Nc1cccc(Br)c1)c1cccc(S(=O)(=O)N2CCN(C(=O)C3(O)CC3)CC2)c1 [compound 129]	+ (‘+’ indicates >50% activity at 10 μM)	> 50%	–
Cc1cc(NC(=O)c2cccc(S(=O)(=O)N3CCN(C(=O)C4CC4)CC3)c2)ccc1F [compound 148]	+ (‘+’ indicates >50% activity at 10 μM)	> 50%	–
COC1CN(S(=O)(=O)c2cccc(C(=O)Nc3cccc(Cl)c3)c2)C1 [compound 191]	+ (‘+’ indicates >50% activity at 10 μM)	> 50%	–
O=C(Nc1ccc(F)c(Cl)c1)c1cccc(S(=O)(=O)N2CCCC2CO)c1 (centres unmarked) [compound 208]	+ (‘+’ indicates >50% activity at 10 μM)	> 50%	–
O=C(Nc1cc(F)c(F)c(F)c1)c1cccc(S(=O)(=O)N2CCC(CO)CC2)c1 [compound 258]	+ (‘+’ indicates >50% activity at 10 μM)	> 50%	–
O=C(Nc1cc(F)c(F)c(F)c1)c1cccc(S(=O)(=O)N2CCC(O)CC2)c1 [compound 318]	+ (‘+’ indicates >50% activity at 10 μM)	> 50%	–
CN(CCO)S(=O)(=O)c1cccc(C(=O)Nc2ccc(F)cc2)c1 [compound 332]	+ (‘+’ indicates >50% activity at 10 μM)	> 50%	–
CN(CC(O)CO)S(=O)(=O)c1cccc(C(=O)Nc2cccc(Cl)c2)c1 (centres unmarked) [compound 366]	+ (‘+’ indicates >50% activity at 10 μM)	> 50%	–
O=C(Nc1ccc(F)c(Br)c1)c1cccc(S(=O)(=O)N2CC(O)C2)c1 [compound 407]	+ (‘+’ indicates >50% activity at 10 μM)	> 50%	–
N#Cc1cc(NC(=O)c2cccc(S(=O)(=O)N3CCC(O)CC3)c2)ccc1F [compound 419]	+ (‘+’ indicates >50% activity at 10 μM)	> 50%	–
Cc1cc(NC(=O)c2cccc(S(=O)(=O)N3CCC(C)(CO)CC3)c2)ccc1F [compound 478]	+ (‘+’ indicates >50% activity at 10 μM)	> 50%	–
O=C(Nc1ccc(F)c(Cl)c1)c1cccc(S(=O)(=O)N2CCC(O)(CO)CC2)c1 [compound 501]	+ (‘+’ indicates >50% activity at 10 μM)	> 50%	–
O=C(Nc1ccc(F)c(Cl)c1)c1cccc(S(=O)(=O)N2CCC(O)(c3ccccc3)CC2)c1 [compound 541]	+ (‘+’ indicates >50% activity at 10 μM)	> 50%	–
O=C(Nc1ccc(F)c(Cl)c1)c1cccc(S(=O)(=O)N2CCC(CO)(Cc3ccccc3)CC2)c1 [compound 553]	+ (‘+’ indicates >50% activity at 10 μM)	> 50%	–
O=C(Nc1cc(F)c(F)c(Cl)c1)c1cccc(S(=O)(=O)N2CCC(O)CC2)c1 [compound 595]	+ (‘+’ indicates >50% activity at 10 μM)	> 50%	–
O=C(Nc1ccc(F)c(CF)c1)c1cccc(S(=O)(=O)N2CC(O)C2)c1 [compound 646]	+ (‘+’ indicates >50% activity at 10 μM)	> 50%	–
O=C(Nc1ccc(F)c(Br)c1)c1cccc(S(=O)(=O)N2CCC(O)(CO)CC2)c1 [compound 758]	+ (‘+’ indicates >50% activity at 10 μM)	> 50%	–
O=C(Nc1cc(F)c(F)c(F)c1)c1cccc(S(=O)(=O)N2CCC(O)(c3ccc(F)cc3)CC2)c1 [compound 765]	+ (‘+’ indicates >50% activity at 10 μM)	> 50%	–

Reference: patent US9751857B2, “Hepatitis B antiviral agents” (NOVIRA THERAPEUTICS, INC., priority 2011, dated 2017)
